Measured values as given in patent US5013724A, “Process for the sulfation of glycosaminoglycans, the sulfated glycosaminoglycans and their biological applications” (Sanofi Societe Anonyme, priority 1986, dated 1991).

Columns and labels:
thrombus formation = assay: anti-thrombotic activity in vivo in the rabbit, Wessler model (human thromboplastin as thrombogenic agent); conditions: dose of 100 μg/kg
Description: (d) anti-thrombotic activity in vivo in the rabbit, according to the model of Wessler (such as that described by Wessler, S., Reimer, S. M. and Sheps, M. C., in J. Appl. Physiol. 14 (6), 943-946, 1959).
The test substance is injected into the carotid artery, at doses varying from 10 to 500 μg/kg, 3 mn before the administration of the thrombogenic agent (human thromboplastin).
The result is expressed as percentage of inhibition of thrombus formation.

blood coagulation = assay: coagulation time by the APTT method; format: biochemical; conditions: Experiment 1
Description: (c) measurement of the coagulation time by the APTT method (as described in Caen, J., Larrieu, M. J., and Samama, in Hemostase, paris, Expansion Scientifique Francaise, 1968, pp 133-135).
In the present instance, the concentration of the product to be tested necessary for a doubling of the coagulation time is determined.
The result is expressed in μg of substance tested per ml.

factor IIa (thrombin) [1] = assay: inhibitory activity towards factor IIa (thrombin) in the presence of AT-III; format: biochemical; conditions: Experiment 1
Description: (§1) (b) inhibitory activity towards the activated factor II (factor IIa) or thrombin.
(§2) The results are expressed in μg of product per ml.
(§3) In this model system, the inhibition of factor IIa is determined by measuring the IC 50 of the test substances in the presence of AT-III and HC II.

factor IIa (thrombin) [2] = assay: inhibitory activity towards factor IIa (thrombin) in the presence of HC II; format: biochemical; conditions: Experiment 1
Description: as §1, §2, §3

plasma = assay: additional experiments in plasma on cofactor dependence

In the case of Dermatan sulfate, the “prevention of thrombus formation” value (thrombus formation) is reported as roughly 40%, the “activity in the APTT model (in words)” value (blood coagulation) is reported as “sursulfation increases the activity” and the “Concentration necessary to double the coagulation time” value (blood coagulation; APTT method) is reported as 50 µg/mL. For the same substance, the “Anti-IIa activity, AT-III, IC 50” value (factor IIa (thrombin) [1]) was 100 µg/mL, the “Anti-IIa activity, HC II, IC 50” value (factor IIa (thrombin) [2]) was 5.8 µg/mL and the “cofactor dependence of the action in plasma” value (plasma) was “totally dependent on HC 11”.
